Measurements: PubChem BioAssay (NCI)
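48-hour exposure; five concentrations; linearly interpolated endpoints. Here, GI50 denotes the concentration required for 50% inhibition of growth. TGI is the concentration that stops growth completely.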

Tests used:
Test in all cases: NCI anticancer screen, dose series, 48 h
HS 578T breast = test system: HS 578T breast
A498 renal = test system: A498 renal
NCI/ADR-RES ovarian = test system: NCI/ADR-RES ovarian
TK-10 renal = test system: TK-10 renal
SW-620 colon = test system: SW-620 colon
HOP-92 NSCLC = test system: HOP-92 NSCLC
CAKI-1 renal = test system: CAKI-1 renal
SNB-19 CNS = test system: SNB-19 CNS
SN12C renal = test system: SN12C renal
UACC-62 melanoma = test system: UACC-62 melanoma
ACHN renal = test system: ACHN renal
HCT-116 colon = test system: HCT-116 colon
IGROV1 ovarian = test system: IGROV1 ovarian
CCRF-CEM leukemia = test system: CCRF-CEM leukemia
MCF7 breast = test system: MCF7 breast
HT29 colon = test system: HT29 colon
786-0 renal = test system: 786-0 renal
M14 melanoma = test system: M14 melanoma
SK-MEL-5 melanoma = test system: SK-MEL-5 melanoma
SK-OV-3 ovarian = test system: SK-OV-3 ovarian
SR leukemia = test system: SR leukemia
MALME-3M melanoma = test system: MALME-3M melanoma
NCI-H460 lung = test system: NCI-H460 lung
SNB-75 CNS = test system: SNB-75 CNS
DU-145 prostate = test system: DU-145 prostate
SF-539 CNS = test system: SF-539 CNS
HL-60(TB) leukemia = test system: HL-60(TB) leukemia
MDA-MB-435 = test system: MDA-MB-435
NCI-H23 lung = test system: NCI-H23 lung
OVCAR-3 ovarian = test system: OVCAR-3 ovarian
SK-MEL-28 melanoma = test system: SK-MEL-28 melanoma
PC-3 prostate = test system: PC-3 prostate
OVCAR-8 ovarian = test system: OVCAR-8 ovarian
RXF 393 renal = test system: RXF 393 renal
KM12 colon = test system: KM12 colon
BT-549 breast = test system: BT-549 breast
UACC-257 melanoma = test system: UACC-257 melanoma
MDA-MB-231 breast = test system: MDA-MB-231 breast
T-47D breast = test system: T-47D breast
LOX IMVI melanoma = test system: LOX IMVI melanoma
HCT-15 colon = test system: HCT-15 colon
HCC-2998 colon = test system: HCC-2998 colon
UO-31 renal = test system: UO-31 renal
K-562 leukemia = test system: K-562 leukemia
U251 CNS = test system: U251 CNS
MOLT-4 leukemia = test system: MOLT-4 leukemia
SF-295 CNS = test system: SF-295 CNS
RPMI-8226 leukemia = test system: RPMI-8226 leukemia
HOP-62 NSCLC = test system: HOP-62 NSCLC
NCI-H226 lung = test system: NCI-H226 lung
A549 NSCLC = test system: A549 NSCLC
NCI-H522 lung = test system: NCI-H522 lung
SF-268 CNS = test system: SF-268 CNS
OVCAR-5 ovarian = test system: OVCAR-5 ovarian
COLO 205 colon = test system: COLO 205 colon
OVCAR-4 ovarian = test system: OVCAR-4 ovarian

With `COc1ccc(C(O)(CCC(C)C)C(CN2CCOCC2)c2ccc(Cl)cc2)cc1` (configuration not stated) the GI50 (HS 578T breast) was 15.2 µM, the TGI (HS 578T breast) was 40.4 µM and the GI50 (A498 renal) was 10.9 µM. The TGI (A498 renal) was 23.4 µM, the GI50 (NCI/ADR-RES ovarian) was 11.1 µM and the TGI (NCI/ADR-RES ovarian) was 34.2 µM. For the same compound, the GI50 (TK-10 renal) was 16.7 µM, the TGI (TK-10 renal) was 31.3 µM and the GI50 (SW-620 colon) was 11.4 µM. It also gave a TGI (SW-620 colon) of 26.8 µM, a GI50 (HOP-92 NSCLC) of 8 µM and a TGI (HOP-92 NSCLC) of 21.7 µM. The GI50 (CAKI-1 renal) was 14 µM, the TGI (CAKI-1 renal) was 31.7 µM and the GI50 (SNB-19 CNS) was 14.8 µM. The TGI (SNB-19 CNS) was 52.4 µM, the GI50 (SN12C renal) was 13.4 µM and the TGI (SN12C renal) was 31.2 µM. The GI50 (UACC-62 melanoma) was 13.4 µM, the TGI (UACC-62 melanoma) was 29.1 µM and the GI50 (ACHN renal) was 14.4 µM. For the same compound, the TGI (ACHN renal) was 27.9 µM, the GI50 (HCT-116 colon) was 4.68 µM and the TGI (HCT-116 colon) was 19.1 µM. The GI50 (IGROV1 ovarian) was 14.2 µM, the TGI (IGROV1 ovarian) was 54.2 µM and the GI50 (CCRF-CEM leukemia) was 13.6 µM. For the same compound, the TGI (CCRF-CEM leukemia) was 34.8 µM, the GI50 (MCF7 breast) was 10.4 µM and the TGI (MCF7 breast) was 24.6 µM. The GI50 (HT29 colon) was 4.41 µM, the TGI (HT29 colon) was 20.1 µM and the GI50 (786-0 renal) was 14 µM. It also gave a TGI (786-0 renal) of 28.6 µM, a GI50 (M14 melanoma) of 13.9 µM and a TGI (M14 melanoma) of 33.2 µM. The GI50 (SK-MEL-5 melanoma) was 13.8 µM, the TGI (SK-MEL-5 melanoma) was 30.9 µM and the GI50 (SK-OV-3 ovarian) was 21.8 µM. The TGI (SK-OV-3 ovarian) was 75.8 µM, the GI50 (SR leukemia) was 10.4 µM and the TGI (SR leukemia) was 28.9 µM. For the same compound, the GI50 (MALME-3M melanoma) was 19.1 µM, the TGI (MALME-3M melanoma) was 39.5 µM and the GI50 (NCI-H460 lung) was 11.4 µM. For the same compound, the TGI (NCI-H460 lung) was 31.6 µM, the GI50 (SNB-75 CNS) was 13 µM and the TGI (SNB-75 CNS) was 35.2 µM. For the same compound, the GI50 (DU-145 prostate) was 15.4 µM, the TGI (DU-145 prostate) was 29.5 µM and the GI50 (SF-539 CNS) was 15.4 µM. The TGI (SF-539 CNS) was 30.3 µM, the GI50 (HL-60(TB) leukemia) was 14.8 µM and the TGI (HL-60(TB) leukemia) was 39.1 µM. For the same compound, the GI50 (MDA-MB-435) was 14.9 µM, the TGI (MDA-MB-435) was 37.3 µM and the GI50 (NCI-H23 lung) was 9.85 µM. The TGI (NCI-H23 lung) was 30.3 µM, the GI50 (OVCAR-3 ovarian) was 12.9 µM and the TGI (OVCAR-3 ovarian) was 26.2 µM. The GI50 (SK-MEL-28 melanoma) was 15.7 µM, the TGI (SK-MEL-28 melanoma) was 34.4 µM and the GI50 (PC-3 prostate) was 6.03 µM. For the same compound, the TGI (PC-3 prostate) was 21 µM, the GI50 (OVCAR-8 ovarian) was 16.1 µM and the TGI (OVCAR-8 ovarian) was 41.5 µM. The GI50 (RXF 393 renal) was 6.49 µM, the TGI (RXF 393 renal) was 21.7 µM and the GI50 (KM12 colon) was 11.4 µM. It also gave a TGI (KM12 colon) of 26.2 µM, a GI50 (BT-549 breast) of 14.9 µM and a TGI (BT-549 breast) of 30 µM. It also gave a GI50 (UACC-257 melanoma) of 13.4 µM, a TGI (UACC-257 melanoma) of 33 µM and a GI50 (MDA-MB-231 breast) of 12.1 µM. It also gave a TGI (MDA-MB-231 breast) of 27.2 µM, a GI50 (T-47D breast) of 11.4 µM and a TGI (T-47D breast) of 26.9 µM. For the same compound, the GI50 (LOX IMVI melanoma) was 14.5 µM, the TGI (LOX IMVI melanoma) was 28 µM and the GI50 (HCT-15 colon) was 10.3 µM. For the same compound, the TGI (HCT-15 colon) was 24.1 µM, the GI50 (HCC-2998 colon) was 10.7 µM and the TGI (HCC-2998 colon) was 24 µM. For the same compound, the GI50 (UO-31 renal) was 11.3 µM, the TGI (UO-31 renal) was 25.9 µM and the GI50 (K-562 leukemia) was 15.1 µM. The TGI (K-562 leukemia) was 47 µM, the GI50 (U251 CNS) was 12.3 µM and the TGI (U251 CNS) was 26.3 µM. The GI50 (MOLT-4 leukemia) was 9.83 µM, the TGI (MOLT-4 leukemia) was 33.1 µM and the GI50 (SF-295 CNS) was 13.4 µM. The TGI (SF-295 CNS) was 29.8 µM, the GI50 (RPMI-8226 leukemia) was 8.76 µM and the TGI (RPMI-8226 leukemia) was 31.2 µM. For the same compound, the GI50 (HOP-62 NSCLC) was 18.8 µM, the TGI (HOP-62 NSCLC) was 37.4 µM and the GI50 (NCI-H226 lung) was 13.2 µM. The TGI (NCI-H226 lung) was 32.1 µM, the GI50 (A549 NSCLC) was 11.6 µM and the TGI (A549 NSCLC) was 35 µM. It also gave a GI50 (NCI-H522 lung) of 6.7 µM, a TGI (NCI-H522 lung) of 21.6 µM and a GI50 (SF-268 CNS) of 14 µM. The TGI (SF-268 CNS) was 29.3 µM, the GI50 (OVCAR-5 ovarian) was 12.2 µM and the TGI (OVCAR-5 ovarian) was 25.7 µM. The GI50 (COLO 205 colon) was 12.7 µM, the TGI (COLO 205 colon) was 30.9 µM and the GI50 (OVCAR-4 ovarian) was 12.1 µM. The TGI (OVCAR-4 ovarian) was 27.4 µM.
